Laboratory results from PubChem BioAssay (NCI).
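These data come from cells grown in 96-well plates and exposed to compound for 48 hours at five concentrations. Definition used: TGI = concentration required for complete inhibition of growth.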

Key:
Assay in all cases: DTP human tumour cell line panel, 48 h
NCI-H460 lung = system: NCI-H460 lung
EKVX NSCLC = system: EKVX NSCLC
KM12 colon = system: KM12 colon
HT29 colon = system: HT29 colon
SR leukemia = system: SR leukemia
ACHN renal = system: ACHN renal
MDA-MB-435 = system: MDA-MB-435
RXF 393 renal = system: RXF 393 renal
OVCAR-5 ovarian = system: OVCAR-5 ovarian
SK-OV-3 ovarian = system: SK-OV-3 ovarian
UACC-257 melanoma = system: UACC-257 melanoma

SMILES	TGI (NCI-H460 lung) [µM]	TGI (EKVX NSCLC) [µM]	TGI (KM12 colon) [µM]	TGI (HT29 colon) [µM]	TGI (SR leukemia) [µM]	TGI (ACHN renal) [µM]	TGI (MDA-MB-435) [µM]	TGI (RXF 393 renal) [µM]	TGI (OVCAR-5 ovarian) [µM]	TGI (SK-OV-3 ovarian) [µM]	TGI (UACC-257 melanoma) [µM]
N#C/C(=C\c1ccc(Cl)cc1)c1nc2ccccc2c(=O)[nH]1	> 100	> 100	> 100	> 100	> 100	> 100	> 100	> 100	> 100	> 100	> 100
COc1ccc(NC=O)c(C(O)CCNC(C)=O)c1 (stereo not given)	> 100	> 100	> 100	> 100	> 100	> 100	> 100	> 100	> 100	> 100	> 100
CCN(CC)c1ccc(/C=C/C2=NN(c3cccc(S(=O)(=O)O)c3)C3(C2)C(Cl)C(=O)N3c2nc3ccccc3s2)cc1 (stereo not given)	25.8	39.2	20.9	33.9	7.41	23.8	17	21.1	58.7	39.3	22.6
NC(=S)N/N=C/c1cc(CN2CCOCC2)c(N)cn1	> 100	> 100	> 100	> 100	> 100	> 100	> 100	> 100	> 100	> 100	> 100
CN(CCO)CC(=O)CC(O)(C(F)(F)F)C(F)(F)F	> 100	> 100	> 100	> 100	> 100	99.4	> 100	46.8	> 100	74.3	> 100
CC1C2CC(C(C3C(=O)C4CC3C(C)(C)C4C)C2=O)C1(C)C (stereo not given)	> 100	> 100	> 100	> 100	> 100	> 100	> 100	> 100	> 100	> 100	> 100
COc1ccc2oc(=N)c(C(N)=S)cc2c1	39.7	95.7	84.8	> 100	> 100	79.2	> 100	32.8	> 100	> 100	93.4
CC1CCCc2c(-c3ccc(Cl)cc3)nc(N)c(C#N)c21 (stereo not given)	81.4	65.8	56.7	> 100	40.5	> 100	> 100	93.2	> 100	83.6	61.5
COc1ccc(CSCc2cc(OC)c(OC)c(OC)c2)cc1	> 100	> 31.6	> 100	> 100	> 100	> 100	> 81.3	> 100	> 100	> 100	> 31.6
CCOC(=O)CNC(=O)C(CSC(=O)N(O)c1ccc(Br)cc1)NC(=O)CCC(N)C(=O)OCC (stereo not given)	> 50	> 50	> 50	> 50	> 50	> 50	> 50	> 50	> 50	> 50	> 50
